Structures can show the parent of a compound that is named as a salt. Where two headings read alike, the source gives them in different places.
Test system: hESC-derived ECs versus ACL cells
Test: High-throughput screening of LOPAC library, PrestoBlue cell viability, hESC-derived ECs versus ACL cells
Type: cell-based, human
Description: High-throughput screening (HTS). HUAECS (Lonza) and hESC-derived ECs were cultured in EGM-2 medium while human anterior cruciate ligament cells (ACL cells) were cultured in Dulbecco's modified Eagle's medium (DMEM; PAA) supplemented with 10% FBS, 0.2 mM ascorbic acid 2-phosphate magnesium salt (Sigma Aldrich), […] streptomycin and 100 U/mL penicillin (Life Technologies). ACL cells were isolated from patients that have signed an informed consent form, in compliance with the Dutch legislation. The ethical committee of Medisch Spectrum Twente Hospital approved the collection.
The LOPAC library (Sigma-Aldrich) was used to screen embryonic endothelial-specific cytotoxic compounds. The compounds were solubilized in DMSO. The final compound concentration used in the screen was 4.5 μM in a final volume of 200 μL per well (96-well plate). HUAECs, hESC-derived EC and ACL cells were seeded at 16,000 cells/well (HUAECs and hESC-derived ECs) and 5,000 cells/well (ACL cells) and allowed to reach near confluence (approximately two days). After two days, medium was exchanged and test compounds and controls were added to the 96-well plates (all wells contained 0.25% (v/v) DMSO). After 4 days of incubation, cell viability was assessed using a PrestoBlue (Invitrogen) assay. This assay is based on a resazurin-based solution that indicates the reducing power of living cells and therefore measures indirectly their number. For each measurement, cell medium was removed and the PrestoBlue solution (10%) was added for 3 h at 37° C. upon which the absorbance was measured at 560-590 nm.
Disruption of vascular development has been directly correlated with prenatal loss, malformations and neurodevelopmental problems^41-44. […] The library was screened at a single dosage of 4.5 μM in a volume of 200 μL per well of EGM-2 medium, containing 0.25% DMSO (v/v). […] Six compounds (danazol, chlorpromazine hydrochloride, ellipticine, 3′,4′-dichlorobenzamil, fluphenazine dihydrochloride and 7-cyclopentyl-5-(4-phenoxy)phenyl-7H-pyrrolo[2,3-d]pyrimidin-4-ylamine) affected cell viability in both cells by a difference of 20% (FIG. 4B). The six compounds belong to different classes: cell cycle, ion pumps, dopamine pathway, phosphorylation and hormone signaling. The compounds selected from the primary screen were then tested against hESC-derived ECs and HUAECs at eight different concentrations to obtain a dose-response curve (FIG. 4C and FIG. 14).

[1] = LOPAC screen, 4.5 μM, 4 days of incubation, PrestoBlue assay

Compound	Differences (%) in cell viability (hESC-Derived ECs versus ACL cells) [1]	Differences (%) in cell viability (hESC-Derived ECs versus ACL cells)
CC1=C(C)C(=O)C(CCCCC#CCCCC#CCO)=C(C)C1=O [AA-861]	53.3%	–
COc1cc2c(cc1C(F)(F)F)N(C(=O)Nc1cc(F)cc(-c3cccnc3)c1)CC2 [SB 228357]	62.7%	–
CC(C)(C)c1cc(C=C(C#N)C#N)cc(C(C)(C)C)c1O [Tyrphostin A9]	69.5%	–
Cc1c(C)c2c(c(C)c1O)CCC(C)(CN1CCN(c3cc(N4CCCC4)nc(N4CCCC4)n3)CC1)O2.Cl.Cl (stereo not shown) [U-83836 dihydrochloride]	51.3%	–
O=C(O)c1ccccc1Nc1cccc(OCc2ccc3ccccc3n2)c1 [SR 2640]	53.0%	–
COc1cc2c(cc1OC)-c1c/c(=N\c3c(C)cc(C)cc3C)n(C)c(=O)n1CC2 [Trequinsin hydrochloride]	50.7%	–
CSc1ccc2c(c1)N(CCC1CCCCN1C)c1ccccc1S2 (stereo not shown) [Thioridazine hydrochloride]	51.6%	–
CC[C@H](C)C(=O)O[C@H]1CCC=C2C=C[C@H](C)[C@H](CC[C@@H]3C[C@@H](O)CC(=O)O3)[C@H]21 [Mevastatin]	98.0%	–
C[C@H]1CCC/C=C/[C@@H]2C[C@H](O)C[C@H]2[C@H](O)/C=C/C(=O)O1 [Brefeldin A]	95.5%	–
Cc1ccc(S(=O)(=O)N[C@@H](Cc2ccccc2)C(=O)CCl)cc1 [N-p-Tosyl-L-phenylalanine chloromethyl ketone]	63.9%	–
CNCC[C@@H](Oc1ccccc1C)c1ccccc1 [Tomoxetine]	68.7%	–
CS(=O)(=O)O.Cc1c(C(=O)c2cccc3ccccc23)c2cccc3c2n1[C@H](CN1CCOCC1)CO3 [(R)-(+)-WIN 55,212-2 mesylate]	97.7%	–
Oc1cc(-c2ccccc2)nc2nc(Cl)ccc12 [7-Chloro-4-hydroxy-2-phenyl-1,8-naphthyridine]	59.1%	–
COc1cc2c(cc1O)CC[C@@H]1[C@@H]2CC[C@]2(C)[C@@H](O)CC[C@@H]12 [2-methoxyestradiol]	84.3%	–
CC[C@]1(O)C[C@H]2CN(CCc3c([nH]c4ccccc34)[C@@](C(=O)OC)(c3cc4c(cc3OC)N(C=O)[C@H]3[C@@](O)(C(=O)OC)[C@H](OC(C)=O)[C@]5(CC)C=CCN6CC[C@]43[C@@H]65)C2)C1 [Vincristine sulfate]	89.2%	–
NC(=O)OCC(COC(N)=O)c1ccccc1 [Felbamate]	50.5%	–
N[C@@H](Cn1cc(I)c(=O)[nH]c1=O)C(=O)O [S-5-lodowillardiine]	52.8%	–
Vinblastine sulfate salt	92.8%	–
COc1cc(-c2ccc(=O)[nH]n2)ccc1OC(F)F [Zardaverine]	84.0%	–
CSc1ccc2c(c1)C(N1CCN(C)CC1)Cc1ccccc1S2 (stereo not shown) [Methiothepin mesylate]	52.4%	–

Compound	Differences (%) in cell viability (hESC-Derived ECs versus ACL cells) [1]	Differences (%) in cell viability (hESC-Derived ECs versus ACL cells)
CCN(CC)C(C)C(=O)N1c2ccccc2Sc2ccccc21.Cl (stereo not drawn) [10-(alpha-Diethylaminopropionyl)-phenothiazine hydrochloride]	56.8%	–
N#CC(=C(/N)Sc1ccccc1N)/C(C#N)=C(\N)Sc1ccccc1N [U0126]	–	68.9%
COc1ccc(CCCOC(Cn2ccnc2)c2ccc(OC)cc2)cc1 (stereo not shown) [SKF 96365]	69.8%	–
CN(C)CCCN1c2ccccc2Sc2ccc(C(F)(F)F)cc21 [Triflupromazine hydrochloride]	53.0%	–
Nc1ncn([C@@H]2O[C@H](CO)[C@@H](O)[C@H]2O)c(=O)n1 [5-azacytidine]	56.1%	–
COc1ccc(NC(=O)c2ccc(-c3ccc(-c4noc(C)n4)cc3C)cc2)cc1N1CCN(C)CC1 [GR 127935 hydrochloride]	66.1%	–
O=S1(=O)N(CCN2CC=C(c3c[nH]c4cc(F)ccc34)CC2)c2cccc3c2N1CCC3 [LY-367,265]	51.1%	–
Br.CN=c1nc(-c2ccccc2)n(-c2ccccc2)s1 [SCH-202676 hydrobromide]	53.2%	–
CN1C[C@H](CNC(=O)OCc2ccccc2)C[C@@H]2c3cccc4c3c(cn4C)C[C@H]21 [Metergoline]	56.5%	–
COc1cc2c(c(OC)c1OC)-c1ccc(OC)c(=O)cc1[C@@H](NC(C)=O)CC2 [Colchicine]	67.4%	–
CC/C(=C(\c1ccccc1)c1ccc(OCCN(C)C)cc1)c1ccccc1 [Tamoxifen citrate]	98.3%	–
Cc1nc(-c2ccc(-c3ccc(C(=O)N4CCc5cc6c(cc54)C4(CCN(C)CC4)CO6)cc3)c(C)c2)no1 [SB 224289 hydrochloride]	96.7%	–
CC(=O)[C@]1(O)Cc2c(O)c3c(c(O)c2[C@@H](O[C@H]2C[C@H](N)[C@H](O)[C@H](C)O2)C1)C(=O)c1ccccc1C3=O [Idarubicin]	94.0%	–
CCN(CC)C(=O)N[C@H]1C[C@@H]2c3cccc4[nH]cc(c34)C[C@H]2N(C)C1 [R(+)-Terguride]	57.1%	–
CC[C@H]1CN2CCc3cc(OC)c(OC)cc3[C@@H]2C[C@@H]1C[C@H]1NCCc2cc(OC)c(OC)cc21 [Emetine dihydrochloride hydrate]	93.4%	–
CCCN1CCC[C@@H](c2cccc(O)c2)C1.Cl [S(−)-3PPP hydrochloride]	51.8%	–
COCC(=O)O[C@]1(CCN(C)CCCc2nc3ccccc3[nH]2)CCc2cc(F)ccc2[C@@H]1C(C)C [Mibefradil dihydrochloride]	62.2%	–
CC(Oc1ccc(Oc2cnc3ccc(Cl)cc3n2)cc1)C(=O)O (stereo not shown) [XK469]	75.9%	–
COc1cc([C@@H]2c3cc4c(cc3[C@@H](O[C@@H]3O[C@@H]5CO[C@@H](C)O[C@H]5[C@H](O)[C@H]3O)[C@H]3COC(=O)[C@H]23)OCO4)cc(OC)c1O [Etoposide]	59.6%	–
CC(/C=C/c1cccc(Oc2ccc(F)cc2)c1)N(O)C(N)=O (stereo not shown) [BWB70C]	55.3%	–
